Here are results for eight compounds from EP0195433A1, “Amide derivatives processes for preparing them and use thereof” (GREEN CROSS CORPORATION, priority 1985, dated 1986).

Assay [1] concerns carrageenan paw edema. The experiment in a line: Anti-inflammatory activity, carrageenan paw edema method. Type of assay: in vivo, SD male rats. To be noted: 25 mg/kg, i.p., 30 minutes before carrageenan; four hours after injection. Here is the method: SD male rats (body weight: 150 - 180 g) were starved overnight and 25 mg/kg of a selected test compound was administered intraperitoneally to each rat. Thirty minutes later, 0.1 ml of a 1.5% solution of carrageenan in physiological saline was injected under the skin of the paw of a hind leg. Four hours after injection, the volume of the treated leg was measured with a mercury manometer and compared with the value prior to carrageenan injection in order to calculate the percentages of edema and its inhibition. Each of the test compounds was administered in a concentration of 5 mg/ml as a suspension in 5% gum arabic in physiological saline.
In general terms: In the carrageenan paw model, swelling and tenderness develop within hours.

The test system of assay [2] is granuloma pouch. The assay is described as follows: Anti-inflammatory activity, granuloma pouch method. Type of assay: in vivo, SD male rats. To be noted: 25 mg/kg/day orally for 8 consecutive days, eight days after croton oil injection; for Weight of Pouch: wet weight. Here is the method: Pouches were made under the dorsal skin of SD male rats (body weight: 150 - 180 g) by injecting 20 ml of N2 gas in accordance with the method described in E. Itoga and Y. Miyake; Oyo yakuri, 66, 316 (1970). The rats were subsequently injected with 1 ml of 1% croton oil dissolved in cottonseed oil. Eight days after injection, the wet weight of each pouch and the volume of exudate therefrom were measured. Each of the test compounds was administered orally for 8 consecutive days on a single-dose-a-day basis..

Assay [3] relates to secretion of gastric juice. The assay is described as follows: Inhibition of gastric juice secretion, pyloric ligation (method of Shay et al.). To be noted: 25 mg/kg, i.p., 4 hours after pyloric ligation; for Total Peptic Activity: casein as substrate; for Total Acid Output: titration with 0.02N NaOH. Type of assay: in vivo, Wistar male rats. As to the method: The activity of each of the test compounds in inhibiting the secretion of gastric juice was measured by pyloric ligation in accordance with the method of Shay et al. described in H. Shay, S.A. Komarov, S.S. Fels et al.; Gastroenterology, 5, 43 (1945). Groups each consisting of 8 - 10 Wistar male rats weighing 150 - 200 g which had been starved for 48 hours were subjected to abdominal incision under ether anesthetization. After pyloric ligation, the incised abdomen of each animal was closed and the animal was kept away from food and water for 4 hours. The test compound was suspended in 5% gum arabic (in physiological saline) to give a concentration of 5 mg/ml, and the suspension was administered intraperitoneally to each rat in a dose of 25 mg/kg immediately after the closure of the incised abdomen. Four hours later, each rat was sacrificed with chloroform and the stomach was extracted. The gastric juice contained in the stomach was withdrawn and checked for its volume, total acidity and total pepsin activity.
The total acidity was determined by titration with 0.02N NaOH using phenolphthalein as an indicator. The total pepsin activity was determined in accordance with the method of Anson; Brit. J. Pharmacol., 13, 54 (1958) using casein as a substrate.

The subject of assay [4] is Aspirin ulcers. The assay is described as follows: Aspirin ulcer. Type of assay: in vivo, Wistar male rats. To be noted: 20 mg/kg intraperitoneally, 7 hours; for Ulcer index: aspirin 150 mg/kg orally, total length of ulcers. Here is the method:
Aspirin ulcers were produced in Wistar male rats (body weight: 150 - 200 g) in accordance with the method described in S. Okabe, K. Takeuchi et al.; Jpn. J. Pharmacol., 24, 363 (1974).
The rats were starved for 24 hours and subjected to pyloric ligation. Immediately thereafter, 150 mg/kg of aspirin suspended in 5% gum arabic was administrered orally to each rat which was simultaneously injected with a selected test compound (20 mg/kg) intraperitoneally.
The rats were kept away from food and water for 7 hours. Thereafter, the stomach was extracted from each animal under ether anesthetization and fixed in formalin. The total length of the ulcers occurring in the glands of the extracted stomach was measured and used as an ulcer index.

For assay [5], the system named is HCl-ethanol ulcers. The assay is described as follows: HCl-ethanol ulcer. The format is in vivo, Wistar male rats. To be noted: for Percent inhibition: 20 mg/kg intraperitoneally; for Ulcer index: 20 mg/kg intraperitoneally 2 hours before 1.5 ml of 15 mM HCl in 60% ethanol orally, 1 hour. As to the method:
HCl-ethanol ulcers were induced in Wistar male rats in accordance with the method described in S. Okabe, S. Ueki et al.; Oyo Yakuri, 27, 829 (1984).
The procedures of (2) were repeated except that 2 hours after the intraperitoneal injection of a selected test compound, 1.5 ml of 15 mM HC1 in 60% ethanol was administrered orally to each rat, which thereafter was kept for an additional 1 hour.

The subject of assay [6] is Stress ulcers. The experiment in a line: Stress ulcer (restraint and water immersion). The format is in vivo, Wistar male rats. To be noted: 20 mg/kg intraperitoneally; for Ulcer index: restrained and immersed in water (22 ± 1°C) for 7 hours. As to the method: Stress ulcers were induced in Wistar male rats in accordance with the method described in K. Takagi and S. Okabe; Jpn. J. Pharmacol., 18, 9 (1968).
The procedures of (2) were repeated except that the rats were restrained immediately after the administration of a selected test compound and immersed in water (22 ± 1°C) for 7 hours.

Assay [7] deals with Acetic acid ulcers. The assay is described as follows: Acetic acid ulcer. Type of assay: in vivo, Wistar male rats. To be noted: 14 consecutive days. Here is the method: .Acetic acid ulcers were induced in Wistar male rats in accordance with the method described in K. Takagi, S. Okabe et al.,; Jpn. J. Pharmacol., 19, 418 (1969).
Starting on the day of operation, each of the test compounds was administered orally to each rat for 14 consecutive days on a two-dose-a-day basis. The rats were starved for 24 hours after administration of the final dose. They then were sacrificed with chloroform and the stomach was extracted from each animal and fixed in formalin. The product of the length and breadth of each […] was determined and used as an ulcer index.

Take `CCCCCC=CC(=O)NCCSCC(N)=O` [Compound 4, NH2COCH2SCH2CH2NH-COCH=CH(CH2)4CH3]: in assay [1], the Percent inhibitaion is 45.2% and the Percentage of edema came out at 28.3%. In assay [2], the “Volume of Exudate” value was 10.6 mL and the “Weight of Pouch” value was found to be 3.81 g.
Turning to `CCCCCCCCC=CC(=O)O` [2-Undecenoic acid, reference compound], in assay [3], the “Gastric Volume” value was 2.46 ml/100 g wt, the “Total Peptic Activity” value turned out to be 159.8 mg as tyrosine/ 100 g wt and the “Total Acid Output” value stood at 318.1 μ Eq/100 g wt.
In assay [1], `CCCCCC=CC(=O)NCCSSCCNC(=O)C=CCCCCC` [Compound 3, [SCH2CH2NH-COCH=CH(CH2)4CH3]2] returned a Percent inhibitaion of 29.7% and a Percentage of edema of 36.3%. In assay [2], the “Volume of Exudate” value is 8.5 mL and the “Weight of Pouch” value stood at 4.34 g.
Turning to `CCCCCCCCC=CC(=O)NCCSCC(N)=O` [Compound 2, NH2COCH2SCH2CH2NH-COCH=CH(CH2)7CH3], in assay [3], the “Gastric Volume” value worked out at 0.97 ml/100 g wt, the “Total Peptic Activity” value was 70.9 mg as tyrosine/ 100 g wt and the “Total Acid Output” value worked out at 97.4 μ Eq/100 g wt. Moreover, in assay [4], the Percent inhibition is recorded as 76.4% and the Ulcer index worked out at 4.0. Further, in assay [5], the Percent inhibition is given as 70.5% and the Ulcer index amounted to 12.2. In assay [6], the Percent inhibition stood at 69.1% and the Ulcer index stood at 9.0.
As for `CCCCCCCCCCC=CC(=O)NCCSCC(N)=O` [Compound 8, NH2COCH2SCH2CH2NH-COCH=CH(CH2)9CH3], in assay [1], the Percent inhibitaion was 49.6% and the Percentage of edema came out at 24.3%.
For `CCCCCCCCCCC=CC(=O)NCCSSCCNC(=O)C=CCCCCCCCCCC` [Compound 7, [SCH2CH2NH-COCH=CH(CH2)9CH3]2], in that order: 30.7% and 33.4%.
As for `CCCCCCCCC=CC(=O)NCCSSCCNC(=O)C=CCCCCCCCC` [Compound 1, [SCH2CH2NH-COCH=CH(CH2)7CH3]2], in assay [3], the “Gastric Volume” value was 2.10 ml/100 g wt, the “Total Peptic Activity” value stood at 139.9 mg as tyrosine/ 100 g wt and the “Total Acid Output” value stood at 229.2 μ Eq/100 g wt.
For the compound `CCCCCCCC=CC(=O)NCCSCC(N)=O` [Compound 6, NH2COCH2SCH2CH2NH-COCH=CH(CH2)6CH3], the “Gastric Volume” value in assay [3] turned out to be 0.93 ml/100 g wt. Besides, the “Total Peptic Activity” value in assay [3] is 81.5 mg as tyrosine/ 100 g wt. For the same compound, the “Total Acid Output” value in assay [3] came out at 91.1 μ Eq/100 g wt. Further, the Percent inhibition amounted to 49.7% in assay [4], 69.7% in assay [5] and 54.3% in assay [6]. For the same compound, the Ulcer index amounted to 8.6 in assay [4]; 12.5 in assay [5]; 13.3 in assay [6]; 45.8 in assay [7] (100 x 2 mg/kg/day orally); 42.1 in assay [7] (200 x 2 mg/kg/day orally); 38.3 in assay [7] (400 x 2 mg/kg/day orally). Moreover, the Percent healing worked out at 21.0% in assay [7] (100 x 2 mg/kg/day orally), 27.4% in assay [7] (200 x 2 mg/kg/day orally) and 34.0% in assay [7] (400 x 2 mg/kg/day orally).
